Reference: EP4467141A1, “PYRAZOLO-QUINOLINES AS SELECTIVE INHIBITORS OF GENOTOXIC STRESS-INDUCED IKK/NF- KB PATHWAYS FOR CANCER THERAPY” (Max-Delbrück-Centrum für Molekulare Medizin in der …, priority 2023, dated 2024)

Legend:
Experiment in all cases: Kinase panel study
Assay type in all cases: biochemical
Conditions in all cases: read-out: Percentage of inhibition; for inhibition at 1 µM: 1000nM; for inhibition at 10 µM: 10000nM
HCK = target: T1, HCK (Homo sapiens, UniProt P08631)
T1 construct: purchased Thermo Fisher Scientific
T1 sequence (P08631 whole entry): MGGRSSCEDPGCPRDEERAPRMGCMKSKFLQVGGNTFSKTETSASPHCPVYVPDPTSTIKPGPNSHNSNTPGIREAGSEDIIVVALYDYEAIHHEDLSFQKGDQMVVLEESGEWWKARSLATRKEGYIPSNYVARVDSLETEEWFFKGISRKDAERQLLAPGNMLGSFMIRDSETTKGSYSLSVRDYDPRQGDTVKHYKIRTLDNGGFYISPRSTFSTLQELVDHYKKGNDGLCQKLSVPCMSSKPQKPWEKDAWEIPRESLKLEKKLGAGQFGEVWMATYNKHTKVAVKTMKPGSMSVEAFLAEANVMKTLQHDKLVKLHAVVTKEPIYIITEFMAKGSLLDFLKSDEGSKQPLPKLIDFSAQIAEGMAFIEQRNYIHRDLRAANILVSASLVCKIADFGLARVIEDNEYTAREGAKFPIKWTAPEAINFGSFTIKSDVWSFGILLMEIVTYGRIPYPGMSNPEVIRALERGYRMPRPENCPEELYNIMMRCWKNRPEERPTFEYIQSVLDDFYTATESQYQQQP
Method in brief: (§1)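 ZLyte/Adapta biochemical kinase assays, standard operating procedures; % inhibition at 1 µM or 10 µM test compound; IC50 determined in panel.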

NEK6 = target: T2, NEK6 (Homo sapiens, UniProt Q9HC98)
T2 construct: purchased Thermo Fisher Scientific
T2 sequence (Q9HC98 whole entry): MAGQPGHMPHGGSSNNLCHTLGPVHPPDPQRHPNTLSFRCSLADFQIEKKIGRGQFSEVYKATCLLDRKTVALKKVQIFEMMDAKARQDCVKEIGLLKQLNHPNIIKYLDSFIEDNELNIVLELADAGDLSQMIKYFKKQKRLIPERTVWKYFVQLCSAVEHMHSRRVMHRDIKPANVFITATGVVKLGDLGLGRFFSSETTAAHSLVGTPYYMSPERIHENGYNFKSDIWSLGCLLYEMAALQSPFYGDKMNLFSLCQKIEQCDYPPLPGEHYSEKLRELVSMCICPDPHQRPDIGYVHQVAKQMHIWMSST
Method in brief: as §1

DYRK4 = target: T3, DYRK4 (Homo sapiens, UniProt Q9NR20)
T3 construct: purchased Thermo Fisher Scientific
T3 sequence (Q9NR20 1-520): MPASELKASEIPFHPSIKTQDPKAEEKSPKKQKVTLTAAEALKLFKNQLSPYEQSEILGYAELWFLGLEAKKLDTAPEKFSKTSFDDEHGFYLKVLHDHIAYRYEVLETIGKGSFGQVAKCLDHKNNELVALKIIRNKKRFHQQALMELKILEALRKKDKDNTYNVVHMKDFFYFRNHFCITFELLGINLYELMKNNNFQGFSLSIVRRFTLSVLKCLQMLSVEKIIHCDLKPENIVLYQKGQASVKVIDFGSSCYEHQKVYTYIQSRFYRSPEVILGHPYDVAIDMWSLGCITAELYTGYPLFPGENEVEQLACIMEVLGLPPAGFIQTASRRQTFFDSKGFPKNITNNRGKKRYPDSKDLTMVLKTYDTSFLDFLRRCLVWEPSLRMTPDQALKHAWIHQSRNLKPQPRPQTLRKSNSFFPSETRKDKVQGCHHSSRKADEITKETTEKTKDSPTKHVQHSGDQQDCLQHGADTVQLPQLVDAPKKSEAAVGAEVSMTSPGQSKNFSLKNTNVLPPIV
Method in brief: as §1

GRK7 = target: T4, GRK7 (Homo sapiens, UniProt Q8WTQ7)
T4 construct: purchased Thermo Fisher Scientific
T4 sequence (Q8WTQ7 1-553): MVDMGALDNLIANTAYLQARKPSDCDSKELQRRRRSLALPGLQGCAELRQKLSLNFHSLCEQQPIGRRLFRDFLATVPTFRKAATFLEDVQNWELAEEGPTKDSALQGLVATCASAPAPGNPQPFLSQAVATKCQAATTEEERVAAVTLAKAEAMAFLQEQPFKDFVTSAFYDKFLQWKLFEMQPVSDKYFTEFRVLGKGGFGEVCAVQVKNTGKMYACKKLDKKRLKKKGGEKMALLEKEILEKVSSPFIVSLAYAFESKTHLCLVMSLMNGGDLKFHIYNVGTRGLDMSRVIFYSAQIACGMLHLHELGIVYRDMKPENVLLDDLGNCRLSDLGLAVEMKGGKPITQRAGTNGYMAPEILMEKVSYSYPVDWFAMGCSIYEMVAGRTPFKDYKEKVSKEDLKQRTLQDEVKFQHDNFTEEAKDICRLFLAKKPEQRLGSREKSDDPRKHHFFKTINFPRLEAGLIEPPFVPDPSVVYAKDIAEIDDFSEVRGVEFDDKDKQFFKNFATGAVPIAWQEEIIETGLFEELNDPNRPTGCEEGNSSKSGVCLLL
Method in brief: as §1

FER = target: T5, FER (Homo sapiens, UniProt P16591)
T5 construct: purchased Thermo Fisher Scientific
T5 sequence (P16591 whole entry): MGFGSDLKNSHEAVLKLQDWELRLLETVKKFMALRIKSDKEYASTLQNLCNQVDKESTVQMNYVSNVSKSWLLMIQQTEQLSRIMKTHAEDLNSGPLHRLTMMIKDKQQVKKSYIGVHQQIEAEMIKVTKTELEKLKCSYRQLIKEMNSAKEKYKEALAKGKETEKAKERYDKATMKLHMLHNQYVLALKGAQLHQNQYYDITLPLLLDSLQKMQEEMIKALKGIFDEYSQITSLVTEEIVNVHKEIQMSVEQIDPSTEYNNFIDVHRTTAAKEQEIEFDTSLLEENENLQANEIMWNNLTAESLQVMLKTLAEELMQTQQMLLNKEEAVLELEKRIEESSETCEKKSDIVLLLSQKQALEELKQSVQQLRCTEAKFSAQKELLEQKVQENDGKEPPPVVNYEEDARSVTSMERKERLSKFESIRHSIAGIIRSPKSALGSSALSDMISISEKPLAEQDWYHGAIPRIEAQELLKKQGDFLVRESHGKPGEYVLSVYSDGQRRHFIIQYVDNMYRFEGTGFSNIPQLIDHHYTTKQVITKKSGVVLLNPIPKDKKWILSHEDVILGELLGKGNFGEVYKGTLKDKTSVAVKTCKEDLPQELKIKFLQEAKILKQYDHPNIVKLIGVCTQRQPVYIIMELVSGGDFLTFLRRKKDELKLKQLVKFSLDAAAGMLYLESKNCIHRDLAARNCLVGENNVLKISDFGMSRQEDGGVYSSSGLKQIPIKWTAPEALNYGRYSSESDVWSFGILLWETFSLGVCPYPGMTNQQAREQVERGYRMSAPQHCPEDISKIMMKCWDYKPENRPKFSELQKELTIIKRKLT
Method in brief: as §1

IGF1R = target: T6, IGF1R (Homo sapiens, UniProt P08069)
T6 construct: purchased Thermo Fisher Scientific
T6 sequence (P08069 31-1367): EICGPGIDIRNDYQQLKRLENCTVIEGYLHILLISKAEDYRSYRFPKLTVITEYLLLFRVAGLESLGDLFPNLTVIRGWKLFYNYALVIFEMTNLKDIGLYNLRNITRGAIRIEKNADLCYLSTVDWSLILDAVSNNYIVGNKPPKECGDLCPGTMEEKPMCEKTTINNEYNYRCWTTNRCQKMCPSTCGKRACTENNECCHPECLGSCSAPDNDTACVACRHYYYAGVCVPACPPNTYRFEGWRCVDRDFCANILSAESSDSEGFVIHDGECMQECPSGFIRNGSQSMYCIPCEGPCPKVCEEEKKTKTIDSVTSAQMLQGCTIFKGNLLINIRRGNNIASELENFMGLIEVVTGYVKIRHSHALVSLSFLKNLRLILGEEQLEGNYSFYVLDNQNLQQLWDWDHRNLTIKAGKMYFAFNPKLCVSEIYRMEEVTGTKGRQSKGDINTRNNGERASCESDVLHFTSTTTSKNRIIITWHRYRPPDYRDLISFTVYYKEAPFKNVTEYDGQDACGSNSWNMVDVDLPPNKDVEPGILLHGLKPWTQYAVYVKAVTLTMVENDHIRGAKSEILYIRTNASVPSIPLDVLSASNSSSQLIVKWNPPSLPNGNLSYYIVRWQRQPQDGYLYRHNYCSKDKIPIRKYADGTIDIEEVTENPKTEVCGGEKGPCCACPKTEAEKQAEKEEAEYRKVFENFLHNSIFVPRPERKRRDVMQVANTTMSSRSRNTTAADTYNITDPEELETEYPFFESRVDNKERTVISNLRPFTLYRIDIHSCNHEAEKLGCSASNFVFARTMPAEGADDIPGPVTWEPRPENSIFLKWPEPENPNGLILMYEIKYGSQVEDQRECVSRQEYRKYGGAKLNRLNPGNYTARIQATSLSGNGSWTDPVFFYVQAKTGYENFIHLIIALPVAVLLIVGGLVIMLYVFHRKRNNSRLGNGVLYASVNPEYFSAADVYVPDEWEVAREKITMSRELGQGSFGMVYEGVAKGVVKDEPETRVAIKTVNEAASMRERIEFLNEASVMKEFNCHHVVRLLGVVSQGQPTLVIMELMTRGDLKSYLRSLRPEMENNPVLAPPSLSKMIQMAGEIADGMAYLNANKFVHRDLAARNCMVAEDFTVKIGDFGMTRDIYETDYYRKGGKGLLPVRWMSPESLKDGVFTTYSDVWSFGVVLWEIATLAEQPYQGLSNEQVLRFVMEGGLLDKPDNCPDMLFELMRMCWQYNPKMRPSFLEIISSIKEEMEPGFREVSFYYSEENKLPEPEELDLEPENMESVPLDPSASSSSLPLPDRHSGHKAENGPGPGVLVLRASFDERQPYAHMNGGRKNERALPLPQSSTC
Method in brief: as §1

HIPK1 (Myak) = target: T7, HIPK1 (Myak) (Homo sapiens, UniProt Q86Z02)
T7 construct: purchased Thermo Fisher Scientific
T7 sequence (Q86Z02 whole entry): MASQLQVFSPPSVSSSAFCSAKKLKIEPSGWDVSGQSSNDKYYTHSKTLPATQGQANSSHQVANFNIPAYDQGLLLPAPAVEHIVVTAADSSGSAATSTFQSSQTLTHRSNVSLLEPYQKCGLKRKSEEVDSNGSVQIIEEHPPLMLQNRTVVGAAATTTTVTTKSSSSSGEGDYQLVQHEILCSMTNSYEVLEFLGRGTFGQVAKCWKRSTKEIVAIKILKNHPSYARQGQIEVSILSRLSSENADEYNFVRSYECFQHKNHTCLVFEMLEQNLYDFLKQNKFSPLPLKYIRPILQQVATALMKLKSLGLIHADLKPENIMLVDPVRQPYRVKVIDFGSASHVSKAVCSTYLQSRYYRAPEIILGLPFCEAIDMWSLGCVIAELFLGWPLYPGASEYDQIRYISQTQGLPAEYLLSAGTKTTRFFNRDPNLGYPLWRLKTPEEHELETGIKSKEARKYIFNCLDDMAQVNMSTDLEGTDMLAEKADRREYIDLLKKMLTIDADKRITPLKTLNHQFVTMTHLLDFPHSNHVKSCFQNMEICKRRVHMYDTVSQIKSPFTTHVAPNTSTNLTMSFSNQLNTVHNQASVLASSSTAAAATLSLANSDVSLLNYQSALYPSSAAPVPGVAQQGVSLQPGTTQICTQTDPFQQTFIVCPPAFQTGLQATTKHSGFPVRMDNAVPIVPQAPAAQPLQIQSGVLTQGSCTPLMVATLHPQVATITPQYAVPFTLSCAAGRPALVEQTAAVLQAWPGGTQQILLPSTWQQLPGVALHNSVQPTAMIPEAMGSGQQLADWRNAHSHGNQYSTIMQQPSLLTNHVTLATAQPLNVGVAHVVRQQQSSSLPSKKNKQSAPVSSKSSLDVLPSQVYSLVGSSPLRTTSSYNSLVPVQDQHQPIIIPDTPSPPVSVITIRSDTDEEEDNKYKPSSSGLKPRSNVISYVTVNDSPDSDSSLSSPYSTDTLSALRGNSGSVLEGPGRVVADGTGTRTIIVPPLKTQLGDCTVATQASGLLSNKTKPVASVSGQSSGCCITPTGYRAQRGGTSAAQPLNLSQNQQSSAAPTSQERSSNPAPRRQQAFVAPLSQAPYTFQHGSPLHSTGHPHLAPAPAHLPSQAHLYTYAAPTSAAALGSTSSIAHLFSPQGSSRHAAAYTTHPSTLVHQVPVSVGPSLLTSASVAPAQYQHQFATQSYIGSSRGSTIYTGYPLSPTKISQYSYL
Method in brief: as §1

SMILES | inhibition at 1 µM (HCK) | inhibition at 10 µM (HCK) | inhibition at 1 µM (NEK6) | inhibition at 10 µM (NEK6) | inhibition at 1 µM (DYRK4) | inhibition at 10 µM (DYRK4) | inhibition at 1 µM (GRK7) | inhibition at 10 µM (GRK7) | inhibition at 1 µM (FER) | inhibition at 10 µM (FER) | inhibition at 1 µM (IGF1R) | inhibition at 10 µM (IGF1R) | inhibition at 1 µM (HIPK1 (Myak)) | inhibition at 10 µM (HIPK1 (Myak))
COc1ccc2c(c1OC)c(=O)n1c3ccc(O)cc3c3ccnc2c31 [MW01, 5-Hydroxy-10,11-dimethoxy-9H-benzo[c]indolo[3,2,1-ij][1,5]naphthyridin-9-one] | 13% | 22% | 4% | -4% | -2% | 0% | -2% | 0% | 11% | 25% | 11% | 31% | 21% | 47%
COc1ccc2cc3c(N)nn(C(=O)c4cccc(N(C)C)c4)c3nc2c1 [MW05, (3-Amino-7-methoxypyrazolo[3,4-b]quinolin-1-yl)-[3-(dimethylamino)phenyl]methanone] | 10% | 9% | 1% | -4% | 4% | 4% | -2% | 5% | 7% | 0% | -1% | -12% | -4% | -6%
